Laboratory results published in patent US9988397B2, “ERK inhibitors” (Merck Sharp & Dohme Corp., priority 2014, dated 2018).

What follows are compounds tested against phosphorylated active hERK2 enzyme (Homo sapiens, UniProt P28482) (assay: Active human ERK2 (hERK2) Activity Assay (IMAP-FP)). Conditions: 10 point titration, 3 μM starting concentration, 0.5 nM hERK2, 30 μM ATP, 60 minutes reaction.
Format: biochemical
Experimental: Activated ERK2 activity was determined in an IMAP-FP assay (Molecular Devices). Using this assay format, the potency (IC50) of each compound was determined from a 10 point (1:3 serial dilution, 3 μM starting compound concentration) titration curve using the following outlined procedure. […] Following a 15 minute compound & enzyme incubation, each reaction was initiated by the addition of 10 μL kinase buffer containing 2.45 μM ERK2 IMAP substrate peptides and 75 μM ATP. The final reaction in each well of 25 μL consists of 0.5 nM hERK2, 900 nM unlabeled peptide, 80 nM labeled-peptide, and 30 μM ATP. Phosphorylation reactions were allowed to proceed for 60 minutes and were immediately quenched by the addition of 60 μL IMAP detection beads (1:1000 dilutions) in IMAP binding buffer (Molecular Devices) with 24 mM NaCl. Plates were read on EnVision reader after 60 minutes binding equilibration using Fluorescence Polarization protocol (Perkin Elmer).

phosphorylated active hERK2 enzyme, sequence (P28482 whole entry): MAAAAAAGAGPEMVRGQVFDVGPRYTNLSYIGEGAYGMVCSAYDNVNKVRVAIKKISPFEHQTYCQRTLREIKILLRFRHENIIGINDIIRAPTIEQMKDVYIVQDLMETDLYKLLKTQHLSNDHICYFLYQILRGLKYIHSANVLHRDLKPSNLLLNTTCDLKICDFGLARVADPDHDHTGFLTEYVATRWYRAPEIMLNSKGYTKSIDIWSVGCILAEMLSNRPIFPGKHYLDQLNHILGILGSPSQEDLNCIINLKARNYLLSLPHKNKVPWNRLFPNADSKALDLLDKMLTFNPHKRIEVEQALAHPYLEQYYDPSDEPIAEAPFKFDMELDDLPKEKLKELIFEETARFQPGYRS

`Cn1ncc2cc3nc(c21)COCCCC(c1ccccc1)NC(=O)N3` (stereo not drawn) [Example 32, 1-Methyl-9-phenyl-1,6,9,10,11,12-hexahydro-5,15-(azeno)pyrazolo[4,3-k][1,6,8]oxadiazacyclotetradecin-7(8H,14H)-one] was tested. Which IC50 did it give?
Its IC50 is 50.9 nM.

`CN1CCCc2nc(cc3cnn(C)c23)NC(=O)N[C@@H](c2ccccc2)C1` [Example 15, (9S)-1,11-Dimethyl-9-phenyl-1,6,9,10,11,12,13,14-octahydro-5,15-(azeno)pyrazolo[3,4-k][1,3,6]triazacyclotetradecin-7(8H)-one] was tested. Which IC50 did it give?
Its IC50 is 56.8 nM.

How did the IC50 turn out when `CCn1ncc2cc3nc(c21)CC(CO)COC[C@H](c1ccccc1)NC(=O)N3` (stereo partly drawn) [Example 58, (9 S)-1-ethyl-13-(hydroxymethyl)-9-phenyl-1,6,9,10,13,14-hexahydro-12H-5,15-(azeno)pyrazolo[4,3-i][1,4,6]oxadiazacyclotetradecin-7(8H)-one] was run?
The IC50 was 5.09 nM.

`COCCCn1ncc2cc3nc(c21)Cn1cc(nn1)CC(c1ccccc1)NC(=O)N3` (stereo not drawn) [Example 37, 1-(3-Methoxypropyl)-9-phenyl-1,6,9,10-tetrahydro-5,16-(azeno)-14,11-(metheno)pyrazolo[4,3-l][1,2,3,7,9]pentaazacyclopentadecin-7(8H,15H)-one] was tested. Which IC50 did it give?
The IC50 was 241 nM.

How did the IC50 turn out when `CN1CCCC(c2ccccc2)NC(=O)Nc2cc3cnn(C)c3c(n2)C1` (stereo not drawn) [Example 33, 1,13-Dimethyl-9-phenyl-1,6,9,10,11,12,13,14-octahydro-5,15-(azeno)pyrazolo[3,4-k][1,3,8]triazacyclotetradecin-7(8H)-one] was run?
The IC50 was 276 nM.

With `CCn1ncc2cc3nc(c21)CCCO[C@@H]([C@@H](C)O)[C@@H](c1ccccc1)NC(=O)N3` [Example 47, (9R,10R)-1-Ethyl-10-[(1R)-1-hydroxyethyl]-9-phenyl-1,6,9,10,13,14-hexahydro-12H-5,15-(azeno)pyrazolo[4,3-i][1,4,6]oxadiazacyclotetradecin-7(8H)-one] as the compound, how does the IC50 read?
The IC50 was 687 nM.

Which IC50 does the source give for `CCn1ncc2cc3nc(c21)/C=C\COC(C)(C)[C@@H](c1ccccc1)NC(=O)N3` [Example 42, (9R,13Z)-1-Ethyl-10,10-dimethyl-9-phenyl-1,6,9,10-tetrahydro-12H-5,15-(azeno)pyrazolo [4,3-i][1,4,6]oxadiazacyclotetradecin-7(8H)-one] here?
The IC50 was 230 nM.

How did the IC50 turn out when `CCn1ncc2cc3nc(c21)OCCCCC(c1ccccc1)NC(=O)N3` (stereo not drawn) [Example 16, 1-Ethyl-9-phenyl-1,6,8,9,10,11,12,13-octahydro-7H-5,15-(azeno)pyrazolo [3,4-c][1,7,9]oxadiazacyclotetradecin-7-one] was run?
The IC50 was 85.4 nM.

`Cn1ncc2cc3nc(c21)Cn1cc(nn1)C[C@H](c1ccccc1)NC(=O)N3` [Example 35, (9R)-1-Methyl-9-phenyl-1,6,9,10-tetrahydro-5,16-(azeno)-14,11-(metheno)pyrazolo[4,3-l][1,2,3,7,9]pentaazacyclopentadecin-7(8H,15H)-one] was tested. Which IC50 did it give?
The IC50 was 69.4 nM.

With `CCn1ncc2cc3nc(c21)OCCC[C@](C)(O)[C@H](c1ccccc1)NC(=O)N3` [Example 27, (9S,10S)-1-Ethyl-10-hydroxy-10-methyl-9-phenyl-1,6,8,9,10,11,12,13-octahydro-7H-5,15-(azeno)pyrazolo[3,4-c][1,7,9]oxadiazacyclotetradecin-7-one] as the compound, how does the IC50 read?
The IC50 was 148 nM.

How did the IC50 turn out when `C=C1COC[C@H](c2ccccc2)NC(=O)Nc2cc3cnn(CC)c3c(n2)C1` [Example 57, (9 S)-1-ethyl-13-methylidene-9-phenyl-1,6,9,10,13,14-hexahydro-12H-5,15-(azeno)pyrazolo[4,3-i][1,4,6]oxadiazacyclotetradecin-7(8H)-one] was run?
Its IC50 is 5.17 nM.

Which IC50 does the source give for `CCn1ncc2cc3nc(c21)C[C@H](O)COC[C@H](c1cccc(Cl)c1)NC(=O)N3` [Example 56, (9S,13S)-9-(3-chlorophenyl)-1-ethyl-13-hydroxy-1,6,9,10,13,14-hexahydro-12H-5,15-(azeno)pyrazolo[4,3-i][1,4,6]oxadiazacyclotetradecin-7(8H)-one] here?
The IC50 was 0.996 nM.

`CCn1ncc2cc3nc(c21)C[C@H](O)COC[C@H](c1ccc(Cl)c(F)c1)NC(=O)N3` [Example 54, (9S,13S)-1-Ethyl-9-(4-chloro-3-fluorophenyl)-13-hydroxy-1,6,9,10,13,14-hexahydro-12H-5,15-(azeno)pyrazolo[4,3-i][1,4,6]oxadiazacyclotetradecin-7(8H)-one] was tested. Which IC50 did it give?
Its IC50 is 5.09 nM.

Which IC50 does the source give for `Cc1cc(-n2ncc3cc4nc(c32)Cn2cc(nn2)CC(c2ccccc2)NC(=O)N4)ccn1` (single isomer, unassigned) [Example 39, 1-(2-Methylpyridin-4-yl)-9-phenyl-1,6,9,10-tetrahydro-5,16-(azeno)-14,11-(metheno)pyrazolo[4,3-l][1,2,3,7,9]pentaazacyclopentadecin-7(8H,15H)-one] here?
The IC50 was 233 nM.

With `CCn1ncc2cc3nc(c21)CCCOC[C@H](c1ccccc1)NC(=O)N3` [Example 1, (9S)-1-Ethyl-9-phenyl-1,6,9,10,13,14-hexahydro-12H-5,15-(azeno)pyrazolo[4,3-i][1,4,6]oxadiazacyclotetradecin-7(8H)-one] as the compound, how does the IC50 read?
Its IC50 is 8.79 nM.

How did the IC50 turn out when `CCn1ncc2cc3nc(c21)CCCOC(C)(C)[C@@H](c1ccccc1)NC(=O)N3` [Example 12, (9R)-1-Ethyl-10,10-dimethyl-9-phenyl-1,6,9,10,13,14-hexahydro-12H-5,15-(azeno)pyrazolo[4,3-i][1,4,6]oxadiazacyclotetradecin-7(8H)-one] was run?
Its IC50 is 734 nM.

`CCn1ncc2cc3nc(c21)OCCC[C@@H](O)[C@H](c1ccccc1)NC(=O)N3` [Example 26, (9S,10R)-1-Ethyl-10-hydroxy-9-phenyl-1,6,8,9,10,11,12,13-octahydro-7H-5,15-(azeno)pyrazolo[3,4-c][1,7,9]oxadiazacyclotetradecin-7-one] was tested. Which IC50 did it give?
Its IC50 is 118 nM.

With `CCn1ncc2cc3nc(c21)[C@H]1C[C@H]1COC[C@H](c1ccccc1)NC(=O)N3` [Example 8, (9S,12aR,13aS)-1-Ethyl-9-phenyl-1,6,9,10,12,12a,13,13a-octahydro-5,14-(azeno)cyclopropa[1]pyrazolo[4,3-i][1,4,6]oxadiazacyclotetradecin-7(8H)-one] as the compound, how does the IC50 read?
Its IC50 is 49.7 nM.

For `Cn1ncc2cc3nc(c21)OCCC[C@@H](O)[C@H](c1ccccc1)NC(=O)N3` [Example 24, (9S,10R)-10-Hydroxy-1-methyl-9-phenyl-1,6,8,9,10,11,12,13-octahydro-7H-5,15-(azeno)pyrazolo[3,4-c][1,7,9]oxadiazacyclotetradecin-7-one], which IC50 is on record?
Its IC50 is 190 nM.

Which IC50 does the source give for `CCn1ncc2cc3nc(c21)C[C@@H](OC)COC[C@@H](c1ccccc1)NC(=O)N3` (stereo in doubt) [Example 44, (9R,13R)-1-Ethyl-13-methoxy-9-phenyl-1,6,9,10,13,14-hexahydro-12H-5,15-(azeno)pyrazolo[4,3-i][1,4,6]oxadiazacyclotetradecin-7(8H)-one] here?
Its IC50 is 32.8 nM.

With `CCn1ncc2cc3nc(c21)CCCO[C@H]([C@@H](C)O)[C@H](c1ccccc1)NC(=O)N3` [Example 45, (9 S,10 S)-1-Ethyl-10-[(1R)-1-hydroxyethyl]-9-phenyl-1,6,9,10,13,14-hexahydro-12H-5,15-(azeno)pyrazolo[4,3-i][1,4,6]oxadiazacyclotetradecin-7(8H)-one] as the compound, how does the IC50 read?
Its IC50 is 287 nM.

`CCn1ncc2cc3nc(c21)NCCOC[C@H](c1ccccc1)NC(=O)N3` [Example 21, (9S)-1-Ethyl-9-phenyl-1,6,9,10,13,14-hexahydro-12H-5,15-(azeno)pyrazolo[4,3-i][1,4,6,12]oxatriazacyclotetradecin-7(8H)-one] was tested. Which IC50 did it give?
The IC50 was 5.01 nM.

With `Cn1ncc2cc3nc(c21)CCCOC[C@H](c1ccccc1)NC(=O)N3` [Example 2, (9S)-1-Methyl-9-phenyl-1,6,9,10,13,14-hexahydro-12H-5,15-(azeno)pyrazolo[4,3-i][1,4,6]oxadiazacyclotetradecin-7(8H)-one] as the compound, how does the IC50 read?
Its IC50 is 10.2 nM.

With `CCn1ncc2cc3nc(c21)CCCO[C@@H](CO)[C@@H](c1ccccc1)NC(=O)N3` [Example 13, (9R,10R)-1-Ethyl-10-(hydroxymethyl)-9-phenyl-1,6,9,10,13,14-hexahydro-12H-5,15-(azeno)pyrazolo[4,3-i][1,4,6]oxadiazacyclotetradecin-7(8H)-one] as the compound, how does the IC50 read?
Its IC50 is 757 nM.
